Results as given in PubChem BioAssay AID1963875 (Molecular Pharmacology Branch, DTP, NCI, 2024).

Test system: KRAS-mutant PDC complex spheroid viability
Experiment: Anticancer human tumor 186277-243-T-J2-PDC patient-derived colon adenocarcinoma cell line growth inhibition [KRAS2]
Details: for IC50: curve of first compound; for viability, T/C: stronger effect = lower value; active means viability on the fitted dose curve at most 10% of control; inactive means the rest
In short: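 Combination screen of spheroid viability in tumor-cell co-cultures with endothelial (HUVEC) and mesenchymal stem cell stroma. Each agent was tested in half-log dilutions, topping at clinical Cmax or at 10 microM without a known Cmax.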

[1] = second compound 0.1 µM, first compound 0.000316 µM
[2] = second compound 0.1 µM, first compound 0.001 µM
[3] = second compound 0.1 µM, first compound 0.00316 µM
[4] = second compound 0.1 µM, first compound 0.01 µM
[5] = second compound 0.1 µM, first compound 0.0316 µM
[6] = second compound 0.316 µM, first compound 0.000316 µM
[7] = second compound 0.316 µM, first compound 0.001 µM
[8] = second compound 0.316 µM, first compound 0.00316 µM
[9] = second compound 0.316 µM, first compound 0.01 µM
[10] = second compound 0.316 µM, first compound 0.0316 µM
[11] = second compound 1 µM, first compound 0.000316 µM
[12] = second compound 1 µM, first compound 0.001 µM
[13] = second compound 1 µM, first compound 0.00316 µM
[14] = second compound 1 µM, first compound 0.01 µM
[15] = second compound 1 µM, first compound 0.0316 µM
[16] = second compound 3.16 µM, first compound 0.000316 µM
[17] = second compound 3.16 µM, first compound 0.001 µM
[18] = second compound 3.16 µM, first compound 0.00316 µM
[19] = second compound 3.16 µM, first compound 0.01 µM
[20] = second compound 3.16 µM, first compound 0.0316 µM
[21] = second compound 10 µM, first compound 0.000316 µM
[22] = second compound 10 µM, first compound 0.001 µM
[23] = second compound 10 µM, first compound 0.00316 µM
[24] = second compound 10 µM, first compound 0.01 µM
[25] = second compound 10 µM, first compound 0.0316 µM
[26] = second compound 0.1 µM, first compound 0.1 µM
[27] = second compound 0.316 µM, first compound 0.1 µM
[28] = second compound 1 µM, first compound 0.1 µM
[29] = second compound 3.16 µM, first compound 0.1 µM
[30] = second compound 10 µM, first compound 0.1 µM
[31] = second compound 0.1 µM, first compound 0.316 µM
[32] = second compound 0.1 µM, first compound 1 µM
[33] = second compound 0.1 µM, first compound 3.16 µM
[34] = second compound 0.1 µM, first compound 10 µM
[35] = second compound 0.316 µM, first compound 0.316 µM
[36] = second compound 0.316 µM, first compound 1 µM
[37] = second compound 0.316 µM, first compound 3.16 µM
[38] = second compound 0.316 µM, first compound 10 µM
[39] = second compound 1 µM, first compound 0.316 µM
[40] = second compound 1 µM, first compound 1 µM
[41] = second compound 1 µM, first compound 3.16 µM
[42] = second compound 1 µM, first compound 10 µM
[43] = second compound 3.16 µM, first compound 0.316 µM
[44] = second compound 3.16 µM, first compound 1 µM
[45] = second compound 3.16 µM, first compound 3.16 µM
[46] = second compound 3.16 µM, first compound 10 µM
[47] = second compound 10 µM, first compound 0.316 µM
[48] = second compound 10 µM, first compound 1 µM
[49] = second compound 10 µM, first compound 3.16 µM
[50] = second compound 10 µM, first compound 10 µM
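Wherever viability, T/C is given: viability read after seven days of compound exposure; 100% = DMSO vehicle-treated spheroids so lower means less viable.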

CC(=O)Nc1cccc(-n2c(=O)n(C3CC3)c(=O)c3c(Nc4ccc(I)cc4F)n(C)c(=O)c(C)c32)c1 + CNCc1ccccc1-c1csc(C(C)Nc2nc(C)nc3cc(OC)c(OC)cc23)c1
0.302 nM: IC50 (second compound 0.316 µM)
active: viability, T/C [3] 4.46% | viability, T/C [4] 2.28% | viability, T/C [5] 1.31% | viability, T/C [8] 3.37% | viability, T/C [9] 1.77% | viability, T/C [10] 1.09% | viability, T/C [12] 6.94% | viability, T/C [13] 1.83% | viability, T/C [14] 1.15% | viability, T/C [15] 0.51% | viability, T/C [16] 0.37% | viability, T/C [17] 0.04% | viability, T/C [18] 0.02% | viability, T/C [19] 0.02% | viability, T/C [20] 0.11% | viability, T/C (second compound 10 µM, first compound 0.0001 µM) 0.14% | viability, T/C [21] 0.11% | viability, T/C [22] 0.1% | viability, T/C [23] 0.1% | viability, T/C [24] 0.11% | viability, T/C [25] 0.18%
inactive: viability, T/C (second compound 0.1 µM, first compound 0.0001 µM) 109% | viability, T/C [1] 75.5% | viability, T/C [2] 16.4% | viability, T/C (second compound 0.316 µM, first compound 0.0001 µM) 103% | viability, T/C [6] 47.9% | viability, T/C [7] 10.8% | viability, T/C (second compound 1 µM, first compound 0.0001 µM) 115% | viability, T/C [11] 31.3% | viability, T/C (second compound 3.16 µM, first compound 0.0001 µM) 40.6%
0.245 nM: IC50 (second compound 1 µM)
< 0.1 nM: IC50 (second compound 3.16 µM) | IC50 (second compound 10 µM)
0.52 nM: IC50 (second compound 0.1 µM)

CN(C)C/C=C/C(=O)Nc1cc2c(Nc3ccc(F)c(Cl)c3)ncnc2cc1O[C@H]1CCOC1 + CNCc1ccccc1-c1csc(C(C)Nc2nc(C)nc3cc(OC)c(OC)cc23)c1
> 100 nM: IC50 (second compound 0.1 µM) | IC50 (second compound 0.316 µM) | IC50 (second compound 1 µM)
< 0.316 nM: IC50 (second compound 10 µM)
inactive: viability, T/C [1] 100% | viability, T/C [2] 100% | viability, T/C [3] 110% | viability, T/C [4] 117% | viability, T/C [5] 127% | viability, T/C [26] 108% | viability, T/C [6] 110% | viability, T/C [7] 96.2% | viability, T/C [8] 113% | viability, T/C [9] 119% | viability, T/C [10] 109% | viability, T/C [27] 96% | viability, T/C [11] 108% | viability, T/C [12] 107% | viability, T/C [13] 102% | viability, T/C [14] 120% | viability, T/C [15] 119% | viability, T/C [28] 95.9% | viability, T/C [16] 108% | viability, T/C [17] 103% | viability, T/C [18] 109% | viability, T/C [19] 29% | viability, T/C [20] 16.4% | viability, T/C [29] 5.67%
active: viability, T/C [21] 0.21% | viability, T/C [22] 0.22% | viability, T/C [23] 0.19% | viability, T/C [24] 0.15% | viability, T/C [25] 0.13% | viability, T/C [30] 0.33%
7.32 nM: IC50 (second compound 3.16 µM)

COC(=O)c1ccc2c(C(=Nc3ccc(N(C)C(=O)CN4CCN(C)CC4)cc3)c3ccccc3)c(O)[nH]c2c1 + CNCc1ccccc1-c1csc(C(C)Nc2nc(C)nc3cc(OC)c(OC)cc23)c1
727 nM: IC50 (second compound 1 µM)
< 31.6 nM: IC50 (second compound 3.16 µM) | IC50 (second compound 10 µM)
inactive: viability, T/C [5] 97.4% | viability, T/C [26] 94.1% | viability, T/C [31] 120% | viability, T/C [32] 92.6% | viability, T/C [33] 12.3% | viability, T/C [10] 101% | viability, T/C [27] 102% | viability, T/C [35] 105% | viability, T/C [36] 56.5% | viability, T/C [15] 104% | viability, T/C [28] 109% | viability, T/C [39] 101% | viability, T/C [40] 30.5% | viability, T/C [20] 25.5% | viability, T/C [29] 20.5%
1840 nM: IC50 (second compound 0.1 µM)
1140 nM: IC50 (second compound 0.316 µM)
active: viability, T/C [34] 6.55% | viability, T/C [37] 0.86% | viability, T/C [38] 1.8% | viability, T/C [41] 0.19% | viability, T/C [42] 0.16% | viability, T/C [43] 0.12% | viability, T/C [44] 0.06% | viability, T/C [45] 0.03% | viability, T/C [46] 0.1% | viability, T/C [25] 0.13% | viability, T/C [30] 0.12% | viability, T/C [47] 0.1% | viability, T/C [48] 0.08% | viability, T/C [49] 0.09% | viability, T/C [50] 0.14%

COc1cc(Nc2ncc3c(n2)-c2ccc(Cl)cc2C(c2c(F)cccc2OC)=NC3)ccc1C(=O)O + CNCc1ccccc1-c1csc(C(C)Nc2nc(C)nc3cc(OC)c(OC)cc23)c1
active: viability, T/C [20] 4.28% | viability, T/C [29] 5.85% | viability, T/C [43] 4.27% | viability, T/C [44] 3.03% | viability, T/C [45] 0.28% | viability, T/C [46] 0.7% | viability, T/C [25] 0.12% | viability, T/C [30] 0.11% | viability, T/C [47] 0.12% | viability, T/C [48] 0.15% | viability, T/C [49] 0.11% | viability, T/C [50] 0.19%
inactive: viability, T/C [5] 35.7% | viability, T/C [26] 32.4% | viability, T/C [31] 29.4% | viability, T/C [32] 34.1% | viability, T/C [33] 44.2% | viability, T/C [34] 43.8% | viability, T/C [10] 32.8% | viability, T/C [27] 27.8% | viability, T/C [35] 28.8% | viability, T/C [36] 29.7% | viability, T/C [37] 38.3% | viability, T/C [38] 40.8% | viability, T/C [15] 30.1% | viability, T/C [28] 31.6% | viability, T/C [39] 25.9% | viability, T/C [40] 30.7% | viability, T/C [41] 35% | viability, T/C [42] 35.9%
< 31.6 nM: IC50 (second compound 0.1 µM) | IC50 (second compound 0.316 µM) | IC50 (second compound 1 µM) | IC50 (second compound 3.16 µM) | IC50 (second compound 10 µM)

COc1cc2nccc(Oc3ccc(NC(=O)C4(C(=O)Nc5ccc(F)cc5)CC4)cc3)c2cc1OC + CNCc1ccccc1-c1csc(C(C)Nc2nc(C)nc3cc(OC)c(OC)cc23)c1
active: viability, T/C [38] 4.47% | viability, T/C [41] 6.86% | viability, T/C [42] 2.01% | viability, T/C [44] 0.18% | viability, T/C [45] 0.06% | viability, T/C [46] 0.12% | viability, T/C [25] 0.16% | viability, T/C [30] 0.15% | viability, T/C [47] 0.13% | viability, T/C [48] 0.13% | viability, T/C [49] 0.13% | viability, T/C [50] 0.21%
< 31.6 nM: IC50 (second compound 3.16 µM) | IC50 (second compound 10 µM)
1680 nM: IC50 (second compound 1 µM)
inactive: viability, T/C [5] 112% | viability, T/C [26] 106% | viability, T/C [31] 115% | viability, T/C [32] 93.3% | viability, T/C [33] 11.4% | viability, T/C [34] 12.4% | viability, T/C [10] 113% | viability, T/C [27] 104% | viability, T/C [35] 113% | viability, T/C [36] 100% | viability, T/C [37] 10.8% | viability, T/C [15] 102% | viability, T/C [28] 112% | viability, T/C [39] 121% | viability, T/C [40] 85.7% | viability, T/C [20] 45.5% | viability, T/C [29] 48% | viability, T/C [43] 26.6%
1910 nM: IC50 (second compound 0.316 µM)
1850 nM: IC50 (second compound 0.1 µM)

O=C(c1cc(Cc2n[nH]c(=O)c3ccccc23)ccc1F)N1CCN(C(=O)C2CC2)CC1 + CNCc1ccccc1-c1csc(C(C)Nc2nc(C)nc3cc(OC)c(OC)cc23)c1
639 nM: IC50 (second compound 3.16 µM)
active: viability, T/C [25] 0.19% | viability, T/C [30] 0.21% | viability, T/C [47] 0.19% | viability, T/C [48] 0.14% | viability, T/C [49] 0.14% | viability, T/C [50] 0.19%
6450 nM: IC50 (second compound 0.1 µM)
inactive: viability, T/C [5] 110% | viability, T/C [26] 101% | viability, T/C [31] 95.6% | viability, T/C [32] 114% | viability, T/C [33] 78.6% | viability, T/C [34] 32.4% | viability, T/C [10] 107% | viability, T/C [27] 102% | viability, T/C [35] 111% | viability, T/C [36] 106% | viability, T/C [37] 73.8% | viability, T/C [38] 32.7% | viability, T/C [15] 104% | viability, T/C [28] 97.2% | viability, T/C [39] 108% | viability, T/C [40] 104% | viability, T/C [41] 66.9% | viability, T/C [42] 33.8% | viability, T/C [20] 94.8% | viability, T/C [29] 107% | viability, T/C [43] 94.1% | viability, T/C [44] 16.2% | viability, T/C [45] 45.6% | viability, T/C [46] 3.95%
6160 nM: IC50 (second compound 0.316 µM)
< 31.6 nM: IC50 (second compound 10 µM)
5690 nM: IC50 (second compound 1 µM)
